Results: ChEMBL document CHEMBL5113514 (J Med Chem, 2022)
The source made the active and inactive calls. No cut-off for these calls is given here.

Key:
Mus musculus [1] = assay: Antiseizure activity against electrical stimulus induced seizure in ip dosed CD-1 mouse model assessed as reduction in hindlimb tonic extension pretreated for 1 hr by maximal electroshock seizure test; assay type: functional, organism-based
Mus musculus [2] = assay: Antiseizure activity against ScPTZ-induced seizure in ip dosed CD-1 mouse model assessed as clonic seizures pretreated for 1 hr and measured after 30 mins by subcutaneous pentylenetetrazole test; assay type: functional, organism-based
[3] = target: Synaptic vesicle glycoprotein 2A (Mus musculus, UniProt Q9JIS5); assay: Binding affinity to mouse SV2A in presence of levetiracetam by radioligand binding assay
Mus musculus [4] = assay: Antiseizure activity against ScPTZ-induced seizure in ip dosed CD-1 mouse model assessed as clonic seizures pretreated for 0.5 hrs and measured after 30 mins by subcutaneous pentylenetetrazole test; assay type: functional, organism-based
Mus musculus [5] = assay: Antiseizure activity against electrical stimulus induced seizure in ip dosed CD-1 mouse model assessed as normal behavior within 10 seconds after stimulation at 6 Hz and 32 mA for 3 secs pretreated for 0.5 hr by psychomotor seizure test; assay type: functional, organism-based
Mus musculus [6] = organism: Mus musculus; assay: animal or person; conditions: CD-1, 0.5 h
Homo sapiens = organism: Homo sapiens; assay: Binding affinity to TTX-sensitive sodium channel (unknown origin) at 100 uM
Mus musculus [7] = assay: Antiseizure activity against ScPTZ-induced seizure in ip dosed CD-1 mouse model assessed as clonic seizures pretreated for […] and measured after 30 mins by subcutaneous pentylenetetrazole test; assay type: functional, organism-based
[8] = target: Voltage-dependent T-type calcium channel subunit alpha-1H (Homo sapiens) (UniProt O95180); assay: Binding affinity to human Cav3.2 at 100 uM by Qpatch electrophysiological assay
Mus musculus [9] = assay: Anti-seizure activity against electrical stimulus induced seizure in ip dosed CD-1 mouse model assessed as normal behavior within 10 seconds after stimulation at 6 Hz and 32 mA for 3 secs pretreated for […] by psychomotor seizure test; assay type: functional, organism-based

Sequence of Synaptic vesicle glycoprotein 2A (Q9JIS5 whole entry): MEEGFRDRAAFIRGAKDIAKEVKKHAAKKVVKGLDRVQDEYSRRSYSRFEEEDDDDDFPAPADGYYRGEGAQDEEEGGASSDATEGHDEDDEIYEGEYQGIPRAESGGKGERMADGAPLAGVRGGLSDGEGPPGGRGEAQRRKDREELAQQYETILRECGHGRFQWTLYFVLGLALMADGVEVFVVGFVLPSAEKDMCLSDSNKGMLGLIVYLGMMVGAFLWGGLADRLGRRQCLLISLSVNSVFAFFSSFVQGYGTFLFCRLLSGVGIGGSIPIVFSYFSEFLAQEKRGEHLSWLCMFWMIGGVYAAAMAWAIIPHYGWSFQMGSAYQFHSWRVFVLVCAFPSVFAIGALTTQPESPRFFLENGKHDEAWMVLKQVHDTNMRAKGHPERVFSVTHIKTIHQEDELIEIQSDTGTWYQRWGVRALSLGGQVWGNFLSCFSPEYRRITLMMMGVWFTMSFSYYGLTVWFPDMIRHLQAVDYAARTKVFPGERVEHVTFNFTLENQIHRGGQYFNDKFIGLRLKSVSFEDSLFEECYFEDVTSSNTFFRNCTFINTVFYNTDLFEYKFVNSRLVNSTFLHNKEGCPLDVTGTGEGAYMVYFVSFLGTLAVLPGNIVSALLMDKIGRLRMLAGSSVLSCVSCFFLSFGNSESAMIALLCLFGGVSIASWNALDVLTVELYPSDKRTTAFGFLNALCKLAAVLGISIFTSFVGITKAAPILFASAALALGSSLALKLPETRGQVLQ
Sequence of Voltage-dependent T-type calcium channel subunit alpha-1H (Homo sapiens) (O95180 whole entry): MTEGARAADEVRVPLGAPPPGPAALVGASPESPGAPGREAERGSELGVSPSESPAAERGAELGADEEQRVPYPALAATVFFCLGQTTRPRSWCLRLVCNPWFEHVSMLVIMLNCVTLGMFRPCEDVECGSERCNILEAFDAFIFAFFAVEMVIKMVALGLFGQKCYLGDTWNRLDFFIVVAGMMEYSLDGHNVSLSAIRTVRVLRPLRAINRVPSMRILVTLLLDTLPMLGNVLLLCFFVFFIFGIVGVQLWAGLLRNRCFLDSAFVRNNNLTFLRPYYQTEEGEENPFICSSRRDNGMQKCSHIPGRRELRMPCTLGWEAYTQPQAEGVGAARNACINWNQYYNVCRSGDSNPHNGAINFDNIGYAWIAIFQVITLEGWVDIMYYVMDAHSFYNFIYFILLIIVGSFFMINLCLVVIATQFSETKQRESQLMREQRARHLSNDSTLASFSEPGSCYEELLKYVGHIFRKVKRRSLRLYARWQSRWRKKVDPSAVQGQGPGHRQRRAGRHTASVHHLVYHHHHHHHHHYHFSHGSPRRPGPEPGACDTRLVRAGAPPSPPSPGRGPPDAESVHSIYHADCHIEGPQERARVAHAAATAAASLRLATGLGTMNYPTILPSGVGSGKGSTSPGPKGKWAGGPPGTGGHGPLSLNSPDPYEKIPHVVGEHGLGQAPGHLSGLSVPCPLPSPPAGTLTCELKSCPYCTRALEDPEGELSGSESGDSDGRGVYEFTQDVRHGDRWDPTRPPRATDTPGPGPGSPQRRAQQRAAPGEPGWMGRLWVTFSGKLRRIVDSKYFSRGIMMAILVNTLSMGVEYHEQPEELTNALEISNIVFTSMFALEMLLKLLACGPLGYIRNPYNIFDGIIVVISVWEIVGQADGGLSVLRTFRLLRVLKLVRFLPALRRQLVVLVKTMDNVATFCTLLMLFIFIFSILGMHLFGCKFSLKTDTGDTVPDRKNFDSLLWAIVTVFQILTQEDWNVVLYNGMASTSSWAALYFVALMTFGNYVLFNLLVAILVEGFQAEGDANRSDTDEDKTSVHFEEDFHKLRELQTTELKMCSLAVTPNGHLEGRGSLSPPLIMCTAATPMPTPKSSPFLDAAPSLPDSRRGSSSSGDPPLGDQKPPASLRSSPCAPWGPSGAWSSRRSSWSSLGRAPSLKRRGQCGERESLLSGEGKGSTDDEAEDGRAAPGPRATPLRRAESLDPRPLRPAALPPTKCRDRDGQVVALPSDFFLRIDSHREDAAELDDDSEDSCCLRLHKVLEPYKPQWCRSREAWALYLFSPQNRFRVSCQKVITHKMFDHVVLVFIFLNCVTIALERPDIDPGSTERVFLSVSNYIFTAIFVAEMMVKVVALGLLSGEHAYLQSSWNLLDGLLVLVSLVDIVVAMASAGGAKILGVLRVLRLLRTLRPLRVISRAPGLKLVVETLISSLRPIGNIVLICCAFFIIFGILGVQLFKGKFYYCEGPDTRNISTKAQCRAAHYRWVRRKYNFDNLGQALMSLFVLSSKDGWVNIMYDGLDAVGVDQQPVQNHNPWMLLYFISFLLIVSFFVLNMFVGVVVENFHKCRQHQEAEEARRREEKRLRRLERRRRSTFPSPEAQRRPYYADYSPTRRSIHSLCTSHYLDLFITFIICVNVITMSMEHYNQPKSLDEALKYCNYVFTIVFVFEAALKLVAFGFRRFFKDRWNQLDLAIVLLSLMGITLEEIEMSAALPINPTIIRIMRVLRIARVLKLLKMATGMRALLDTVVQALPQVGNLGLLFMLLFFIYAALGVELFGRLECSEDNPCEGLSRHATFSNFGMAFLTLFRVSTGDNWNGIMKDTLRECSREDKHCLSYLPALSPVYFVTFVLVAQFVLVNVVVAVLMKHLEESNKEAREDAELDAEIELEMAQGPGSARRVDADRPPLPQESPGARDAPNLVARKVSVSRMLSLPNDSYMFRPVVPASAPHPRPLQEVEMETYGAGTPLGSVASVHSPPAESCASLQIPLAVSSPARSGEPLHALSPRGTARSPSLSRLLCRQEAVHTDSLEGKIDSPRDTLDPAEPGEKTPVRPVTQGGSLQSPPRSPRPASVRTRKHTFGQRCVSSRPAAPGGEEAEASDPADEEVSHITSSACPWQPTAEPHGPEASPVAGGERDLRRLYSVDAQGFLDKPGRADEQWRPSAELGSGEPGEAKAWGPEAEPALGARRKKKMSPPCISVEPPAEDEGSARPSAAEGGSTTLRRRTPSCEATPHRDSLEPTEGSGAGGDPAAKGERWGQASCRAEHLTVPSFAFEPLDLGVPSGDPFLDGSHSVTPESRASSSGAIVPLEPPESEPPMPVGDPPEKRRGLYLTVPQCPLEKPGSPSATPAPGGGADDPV

Q: Which EC50 (Mus musculus [1]) does the source give for CC[C@@H](C(N)=O)N1CCCC1=O here?
A: > 500 mg/kg

Q: For C=C(C)[C@@H]1CCC(C)=C[C@H]1c1c(O)cc(CCCCC)cc1O [CANNABIDIOL], which EC50 (Mus musculus [1]) is on record?
A: 80 mg/kg

Q: What about the EC50 (Mus musculus [2]) of the same compound?
A: 120 mg/kg

Q: C[C@H](C(=O)NCc1ccccc1)N1C(=O)CCC1=O was tested. Which Ki [3] did it give?
A: > 250 µM

Q: How did the Ki [3] turn out when C[C@@H](C(=O)NCc1ccccc1)N1C(=O)CCC1=O was run?
A: > 250 µM

Q: Which EC50 (Mus musculus [4]) does the source give for CCCC(CCC)C(=O)O [VALPROIC ACID] here?
A: 239.4 mg/kg

Q: What about the EC50 (Mus musculus [5]) of the same compound?
A: 130.6 mg/kg

Q: How did the ED50 (Mus musculus [6]) turn out when COC[C@@H](NC(C)=O)C(=O)NCc1ccccc1 [LACOSAMIDE] was run?
A: 92 mg/kg

Q: What about the EC50 (Mus musculus [5]) of the same compound?
A: 5.3 mg/kg

Q: And the Activity (Homo sapiens)?
A: Active

Q: Which results are given for CCC1(C)CC(=O)NC1=O (stereo not drawn) [ETHOSUXIMIDE]?
A: EC50 (Mus musculus [7]): 140.4 mg/kg; Activity [8]: Active; EC50 (Mus musculus [9]): > 200 mg/kg
